The text below walks through data of ChEMBL document CHEMBL5260828, “Amphiphilic glycoconjugates as potential anti-cancer chemotherapeutics” (Eur J Med Chem, 2018).

Values after ≈ are worked out from the molar mass of the structure shown. Some results are limits rather than exact numbers.

Assay [1] has as its system HeLa. Description: Antiproliferative activity against human HeLa cells assessed as inhibition of cell growth incubated for 24 hrs by MTT assay. In kind it is functional, cell-based. In general terms: Tetrazolium assays rely on reduction of a dye to a coloured formazan, in cell work by metabolically active cells.
The test system of the next assay is AGS. The assay can be described thus: Antiproliferative activity against human AGS cells assessed as inhibition of cell growth incubated for 48 hrs by MTT assay. In kind it is functional, cell-based.
The subject of a further assay is MCF7. Description: Antiproliferative activity against human MCF7 cells assessed as inhibition of cell growth incubated for 48 hrs by MTT assay. In kind it is functional, cell-based.
Assay [2] concerns HCT-116. Description: Antiproliferative activity against human HCT-116 cells assessed as inhibition of cell growth incubated for 48 hrs by MTT assay. In kind it is functional, cell-based.
The test system of a further assay is SF-268. The assay can be described thus: Antiproliferative activity against human SF-268 cells assessed as inhibition of cell growth incubated for 48 hrs by MTT assay. In kind it is functional, cell-based.
A further assay relates to NCI-H460. The assay can be described thus: Antiproliferative activity against human NCI-H460 cells assessed as inhibition of cell growth incubated for 48 hrs by MTT assay. In kind it is functional, cell-based.
Assay [3] relates to IGROV-1. The assay can be described thus: Antiproliferative activity against human IGROV-1 cells assessed as inhibition of cell growth incubated for 72 hrs by Coulter counter assay. In kind it is functional, cell-based. The conditions noted are these: IGROV-1, 72 h.
Assay [4] concerns the target RAC-alpha serine/threonine-protein kinase (Homo sapiens, UniProt P31749). Description: Inhibition of AKT1 (unknown origin) in presence of ATP by ELISA. (An ELISA detects its analyte on a solid surface through an enzyme-linked reagent.)
Assay [5] has as its system IGROV-1. The assay can be described thus: Antiproliferative activity against human IGROV-1 cells assessed as inhibition of cell growth incubated for 72 hrs in serum-free medium by Coulter counter assay. In kind it is functional, cell-based. The conditions noted are these: IGROV-1, 72 h.
Assay [6] has as its system HeLa S3. The assay can be described thus: Cytotoxicity against human HeLa S3 cells assessed as inhibition of cell proliferation incubated for 72 hrs by MTT assay. In kind it is functional, cell-based. The conditions noted are these: HeLa S3, 72 h.
Assay [7] deals with B16. Description: Cytotoxicity against mouse B16 cells assessed as cell growth inhibition incubated for 48 hrs by MTT assay. In kind it is functional, cell-based. To be noted: B16, 48 h.
The subject of the next assay is SMMC-7721. Description: Cytotoxicity against human SMMC-7721 cells assessed as cell growth inhibition incubated for 48 hrs by MTT assay. To be noted: SMMC-7721, 48 h. In kind it is functional, cell-based.
Assay [8] deals with HeLa. Description: Cytotoxicity against human HeLa cells assessed as cell growth inhibition incubated for 48 hrs by MTT assay. In kind it is functional, cell-based.
Another assay deals with HL-60. Description: Cytotoxicity against human HL-60 cells assessed as inhibition of cell proliferation incubated for 72 hrs by MTT assay. In kind it is functional, cell-based. The conditions noted are these: HL-60, 72 h.
Assay [9] concerns HCT-116. Description: Cytotoxicity against human HCT-116 cells assessed as cell growth inhibition incubated for 72 hrs by celltiter 96 aqueous cell proliferation assay. In kind it is functional, cell-based. To be noted: HCT-116, 72 h.
A further assay relates to Lung NSCLC-N6 cell-line. The assay can be described thus: Cytotoxicity against human Lung NSCLC-N6 cell-line by MTT colorimetric assay. In kind it is functional, cell-based.
The next assay relates to P388. The assay can be described thus: Cytotoxicity against mouse P388 cells. In kind it is functional, cell-based. To be noted: p388.
Assay [10] relates to B16. The assay can be described thus: Cytotoxicity against mouse B16 cells. In kind it is functional, cell-based. The conditions noted are these: b16.
A further assay deals with P388/ADM. Description: Cytotoxicity against mouse P388/ADM cells. In kind it is functional, cell-based.
In assay [11] the test system is HeLa S3. Description: Cytotoxicity against human HeLa S3 cells. In kind it is functional, cell-based.
For another assay, the system named is NCI-H69. Description: Cytotoxicity against human NCI-H69 cells. In kind it is functional, cell-based.
The subject of the next assay is NUGC-3. Description: Cytotoxicity against human NUGC-3 cells assessed as cell growth inhibition incubated for 30 mins by MTT assay. The conditions noted are these: NUGC-3, 0.5 h. In kind it is functional, cell-based.

RAC-alpha serine/threonine-protein kinase, sequence (P31749 whole entry): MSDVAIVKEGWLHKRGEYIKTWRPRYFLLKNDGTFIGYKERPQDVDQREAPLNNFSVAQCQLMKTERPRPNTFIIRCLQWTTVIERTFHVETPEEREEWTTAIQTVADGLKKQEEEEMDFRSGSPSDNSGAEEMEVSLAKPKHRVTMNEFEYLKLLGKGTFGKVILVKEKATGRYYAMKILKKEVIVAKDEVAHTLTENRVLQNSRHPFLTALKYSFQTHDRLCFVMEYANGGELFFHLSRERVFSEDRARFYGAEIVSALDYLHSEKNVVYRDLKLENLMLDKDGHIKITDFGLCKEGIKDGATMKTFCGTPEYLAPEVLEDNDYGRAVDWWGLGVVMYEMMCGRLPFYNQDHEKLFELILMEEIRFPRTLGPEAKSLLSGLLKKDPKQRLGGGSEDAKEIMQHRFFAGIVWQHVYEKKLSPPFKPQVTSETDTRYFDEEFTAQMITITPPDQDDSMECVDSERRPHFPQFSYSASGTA

For the molecule `CCCCCCCCCCCCCCCCCCCCCCCCCCCC(=O)OC[C@H](CC[C@@H]1O[C@H](CO)[C@@H](O)[C@H](O)[C@H]1O)OC(=O)CCCCCCCCCCCCCCCCCCCCCCCCCCC`, in the assay on HeLa [1], the IC50 (commonly the concentration that gives 50% inhibition) is above 100 µg/mL.
Consider `CC/C=C\C/C=C\C/C=C\CCCCCCCC(=O)OCC(CO[C@@H]1O[C@H](CO)[C@H](O)[C@H](O)[C@H]1O)OC(=O)CCCCCCCCCCCCCCC` (stereo not given in full), for which the IC50 in the assay on AGS, in the assay on MCF7, in the assay on HCT-116 [2], in the assay with SF-268 and with NCI-H460 was 0.039 µg/mL (≈ 0.0518 µM) in each case.
As to `CCCCCCCCCC(=O)OCC(COC(=O)CCCCCCCCC)O[C@@H]1O[C@H](C(=O)O)[C@@H](O)[C@H](O)[C@H]1O`, the IC50 was found to be 156 µM with IGROV-1 [3], 30.8 µM in [4] and 9.4 µM in the assay with IGROV-1 [5].
For `C=C1[C@@H](OC)C/C=C/[C@@H](O[C@@H]2O[C@H](CO)[C@@H](O)[C@H](OC)[C@H]2O)CC(=O)O[C@@H](/C=C(/C)C/C=C/C)C/C=C/C=C/C[C@H](C)[C@@H]1OO`, the IC50 in the assay on HeLa S3 [6] is above 10 µM.
Regarding `CC/C=C\C/C=C\C/C=C\CCCCCCCC(=O)OCC(CO[C@@H]1O[C@H](CO)[C@H](O)[C@H](O)[C@H]1O)OC(=O)CCCCCCC/C=C\C/C=C\C/C=C\CC` (stereo not given in full), the IC50 in the assay on AGS, in the assay on MCF7, in the assay with HCT-116 [2], in the assay on SF-268 and in the assay on NCI-H460 was 0.039 µg/mL (≈ 0.0503 µM) throughout.
On to `CC/C=C\C/C=C\C/C=C\CCCCCCCC(=O)OCC(CO[C@H]1O[C@H](CN)[C@@H](O)[C@H](O)[C@H]1O)OC(=O)CCCCCCC/C=C\C/C=C\C/C=C\CC` (stereo not given in full), for which the IC50 with B16 [7], in the assay with SMMC-7721 and in the assay on HeLa [8] was 70.3 µg/mL (≈ 90.8 µM) throughout.
Regarding `C/C=C/C/C(C)=C\[C@H]1C/C=C/C=C/C[C@H](C)/C=C(\C)[C@@H](OC)C[C@@H](O)C[C@@H](O[C@@H]2O[C@H](CO)[C@@H](O)[C@H](OC)[C@H]2O)CC(=O)O1`, the concentration for half-maximal inhibition (IC50) in the assay with HL-60 turned out to be 0.04 µM; in the assay on HeLa S3 [6] it was 6.5 µM.
As to `CC/C=C\C/C=C\C/C=C\CCCCCCCC(=O)OCC(CO[C@H]1O[C@H](CNC(=O)CCc2ccc(O)cc2)[C@@H](O)[C@H](O)[C@H]1O)OC(=O)CCCCCCC/C=C\C/C=C\C/C=C\CC` (stereo not given in full), the IC50 in the assay on B16 [7], with SMMC-7721 and in the assay on HeLa [8] was 70.3 µg/mL (≈ 76.2 µM) in each case.
Regarding `C/C=C/C/C(C)=C\[C@H]1C/C=C/C=C/C[C@H](C)/C=C(\C)[C@@H](OC)C[C@@H](O)C[C@@H](O)CC(=O)O1`, the IC50 with HL-60 is 0.012 µM; in the assay on HeLa S3 [6] it was 0.039 µM.
With `CO[C@@H]1/C=C(\C)C[C@H](/C=C/C#C[C@H]2C[C@@H]2Cl)OC(=O)[C@@H](C)[C@]2(O)C[C@H](O[C@@H]3O[C@@H](C)[C@H](O[C@@H]4O[C@@H](C)[C@H](O)[C@@](C)(O)[C@H]4O)[C@@](C)(O)[C@H]3OC)[C@@H](C)[C@@H](O2)[C@@H]1C`, the IC50 in the assay on HCT-116 [9] came out at 2 µM; in the assay on Lung NSCLC-N6 cell-line, 30 µg/mL (≈ 37.4 µM).
On to `CCCCCCCCCCCCCC(=O)OCC(O)C[C@@H]1O[C@H](COC(C)=O)[C@H](OC(C)=O)[C@H](OC(C)=O)[C@H]1OC(C)=O` (stereo not given in full), for which, in the assay on HeLa [1], the half-maximal inhibitory concentration (IC50) was 57 µg/mL (≈ 92.4 µM).
With `CCCCCCCCCCCCCCCCCCCCCCCCCCCC(=O)OC[C@H](CC[C@@H]1O[C@H](CO)[C@H](O)[C@H](O)[C@H]1O)OC(=O)CCCCCCCCCCCCCCCCCCCCCCCCCCC`, the IC50 with HeLa [1] is above 100 µg/mL.
For `C/C=C(\C)C(O[C@@H]1O[C@H](CO)[C@@H](O)[C@H](O)[C@H]1O)C(C)/C=C(C)/C=C/CC(C)(O)/C=C/c1nc(OC)c(OC)c(O)c1C` (stereo in doubt; 283), the IC50 in the assay with P388 was 0.58 µg/mL (≈ 0.977 µM); with B16 [10], 0.32 µg/mL (≈ 0.539 µM); with P388/ADM (Mus musculus, P388/ADM, read-out: IC50), 4.3 µg/mL (≈ 7.24 µM); in the assay on HeLa S3 [11] (Homo sapiens, HeLa S3, read-out: IC50), 0.62 µg/mL (≈ 1.04 µM); in the assay on NCI-H69 (Homo sapiens, NCI-H69, read-out: IC50), 0.47 µg/mL (≈ 0.792 µM).
Turning to `C/C=C(\C)C(O[C@@H]1O[C@H](CO)[C@@H](O)[C@H](O)[C@H]1O)C(C)/C=C(C)/C=C/CC(C)(O)/C=C/c1nc(OC)c(OC)c(O)c1C` (stereo in doubt; 284), the IC50 with P388 was determined as 2.5 µg/mL (≈ 4.21 µM); in the assay on B16 [10], 0.67 µg/mL (≈ 1.13 µM); with P388/ADM (p388/adm), 4.2 µg/mL (≈ 7.07 µM); with HeLa S3 [11] (hela s3), 0.98 µg/mL (≈ 1.65 µM); in the assay on NCI-H69 (nci-h69) it was 0.83 µg/mL (≈ 1.4 µM).
Take `CCCCCCCCCCCCCCCCCC(=O)OCC(O)CO` (stereo not given) [GLYCERYL MONOSTEARATE]: the IC50 in the assay on NUGC-3 turned out to be 100 µM.
